Test system: CAL51 cell proliferation
Assay: Cell Titer Glo Proliferation Assay (CAL51)
Format: cell-based, human
Conditions: Homo sapiens, CAL-51; CAL51 cell proliferation, 72 h, Cell Titer Glo luminescence; read-out: Act. Level
Method in brief: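 Viability is measured by CellTiter-Glo luminescence after 72 h of compound exposure. CAL51 cells were seeded in growth medium with 10% FBS and 2 mM glutamine, cultured overnight, then dosed with compound dilutions, vehicle held at 0.2% DMSO.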

| SMILES | IC50 [nM] |
| --- | --- |
| COc1cc(C(=O)N2C[C@@H](O)[C@H](OC)C2)ccc1Nc1nc(OC2CCCC2)c2c(-c3ccc4nc(C)oc4c3)c[nH]c2n1 [Example 291, (4-(4-(cyclopentyloxy)-5-(2-methylbenzo[d]oxazol-6-yl)-7H-pyrrolo[2,3-d]pyrimidin-2-ylamino)-3-methoxyphenyl) ((3R,4R)-3-hydroxy-4-methoxypyrrolidin-1-yl) methanone] | < 100 |
| COc1cc(C(=O)NN2CCCCC2)ccc1Nc1nc(OC2CCCC2)c2c(-c3ccc4nc(C)oc4c3)c[nH]c2n1 [Example 292, 4-(4-(cyclopentyloxy)-5-(2-methylbenzo[d]oxazol-6-yl)-7H-pyrrolo[2,3-d]pyrimidin-2-ylamino)-3-methoxy-N-(piperidin-1-yl)benzamide] | 100 to 400 |
| CCOc1nc2ccc(-c3c[nH]c4nc(Nc5ccc(C(=O)NC)cc5OC)nc(OC5CCCC5)c34)cc2o1 [Example 293, 4-(4-(cyclopentyloxy)-5-(2-ethoxybenzo[d]oxazol-6-yl)-7H-pyrrolo[2,3-d]pyrimidin-2-ylamino)-3-methoxy-N-methylbenzamide] | 100 to 400 |
| CNC(=O)c1ccc(Nc2nc(OC3CCCC3)c3c(-c4ccc(N)c(O)c4)c[nH]c3n2)c(OC)c1 [Example 294, 4-(5-(4-amino-3-hydroxyphenyl)-4-(cyclopentyloxy)-7H-pyrrolo [2,3-d]pyrimidin-2-ylamino)-3-methoxy-N-methylbenzamide] | 100 to 400 |
| Cc1nc2ccc(-c3c[nH]c4nc(Nc5ccnn5C)nc(OC5CCCC5)c34)cc2o1 [Example 295, 4-(cyclopentyloxy)-N-(1-methyl-1H-pyrazol-5-yl)-5-(2-methylbenzo[d]oxazol-6-yl)-7H-pyrrolo[2,3-d]pyrimidin-2-amine] | 100 to 400 |
| Cc1nc2ccc(-c3c[nH]c4nc(Nc5cnn(C)c5C)nc(OC5CCCC5)c34)cc2o1 [Example 296, 4-(cyclopentyloxy)-N-(1,5-dimethyl-1H-pyrazol-4-yl)-5-(2-methylbenzo[d]oxazol-6-yl)-7H-pyrrolo[2,3-d]pyrimidin-2-amine] | < 100 |
| Cc1nc2ccc(-c3c[nH]c4nc(Nc5nn(C)cc5C)nc(OC5CCCC5)c34)cc2o1 [Example 297, 4-(cyclopentyloxy)-N-(1,4-dimethyl-1H-pyrazol-3-yl)-5-(2-methylbenzo[d]oxazol-6-yl)-7H-pyrrolo[2,3-d]pyrimidin-2-amine] | 1000 to 10000 |
| CNC(=O)c1cc(C)c(Nc2nc(OC3CCCC3)c3c(-c4ccc5nc(C)oc5c4)c[nH]c3n2)c(OC)c1 [Example 298, 4-(4-(cyclopentyloxy)-5-(2-methylbenzo[d]oxazol-6-yl)-7H-pyrrolo[2,3-d]pyrimidin-2-ylamino)-3-methoxy-N,5-dimethylbenzamide] | 1000 to 10000 |
| CNC(=O)c1ccc(Nc2nc(OC3CCCC3)c3c(-c4ccc5[nH]c(=O)oc5c4)c[nH]c3n2)c(OC)c1 [Example 299, 4-(4-(cyclopentyloxy)-5-(2-oxo-2,3-dihydrobenzo[d]oxazol-6-yl)-7H-pyrrolo[2,3-d]pyrimidin-2-ylamino)-3-methoxy-N-methylbenzamide] | 100 to 400 |
| COc1cc(C(=O)NC2(C)COC2)ccc1Nc1nc(OC2CCCC2)c2c(-c3ccc4nc(C)oc4c3)c[nH]c2n1 [Example 301, 4-(4-(cyclopentyloxy)-5-(2-methylbenzo[d]oxazol-6-yl)-7H-pyrrolo[2,3-d]pyrimidin-2-ylamino)-3-methoxy-N-(3-methyloxetan-3-yl)benzamide] | 100 to 400 |
| COc1cc(C(=O)NC2COC2)ccc1Nc1nc(OC2CCC2)c2c(-c3cnn(C)c3)c[nH]c2n1 [Example 302, 4-(4-cyclobutoxy-5-(1-methyl-1H-pyrazol-4-yl)-7H-pyrrolo[2,3-d]pyrimidin-2-ylamino)-3-methoxy-N-(oxetan-3-yl) benzamide] | 100 to 400 |
| COc1cc(C(=O)NC2COC2)ccc1Nc1nc(OC2CCCC2)c2c(-c3cnn(C)c3)c[nH]c2n1 [Example 303, 4-(4-(cyclopentyloxy)-5-(1-methyl-1H-pyrazol-4-yl)-7H-pyrrolo[2,3-d]pyrimidin-2-ylamino)-3-methoxy-N-(oxetan-3-yl)benzamide] | < 100 |
| CNC(=O)c1ccc(-c2c[nH]c3nc(Nc4ccc(C(=O)NC5COC5)cc4OC)nc(OC4CCCC4)c23)cc1 [Example 305, 4-(4-(cyclopentyloxy)-5-(4-(methylcarbamoyl)phenyl)-7H-pyrrolo[2,3-d]pyrimidin-2-ylamino)-3-methoxy-N-(oxetan-3-yl)benzamide] | < 100 |
| CNC(=O)c1ccc(Nc2nc(OC3CCCC3)c3c(-c4ccc5ncccc5c4)c[nH]c3n2)c(OC)c1 [Example 306, 4-(4-(cyclopentyloxy)-5-(quinolin-6-yl)-7H-pyrrolo[2,3-d]pyrimidin-2-ylamino)-3-methoxy-N-methylbenzamide] | < 100 |
| Cc1nc2ccc(-c3c[nH]c4nc(Nc5cn(C)nc5C)nc(OC5CCCC5)c34)cc2o1 [Example 307, 4-(cyclopentyloxy)-N-(1,3-dimethyl-1H-pyrazol-4-yl)-5-(2-methylbenzo[d]oxazol-6-yl)-7H-pyrrolo[2,3-d]pyrimidin-2-amine] | < 100 |
| COc1cc(C(=O)NC2CN(C(C)=O)C2)ccc1Nc1nc(OC2CCCC2)c2c(-c3ccc4nc(C)oc4c3)c[nH]c2n1 [Example 308, N-(1-acetylazetidin-3-yl)-4-(4-(cyclopentyloxy)-5-(2-methylbenzo[d]oxazol-6-yl)-7H-pyrrolo[2,3-d]pyrimidin-2-ylamino)-3-methoxybenzamide] | 100 to 400 |
| COc1cc(C(=O)NCC(C)(F)F)ccc1Nc1nc(OC2CCCC2)c2c(-c3ccc4nc(C)oc4c3)c[nH]c2n1 [Example 309, 4-(4-(cyclopentyloxy)-5-(2-methylbenzo[d]oxazol-6-yl)-7H-pyrrolo[2,3-d]pyrimidin-2-ylamino)-N-(2,2-difluoropropyl)-3-methoxybenzamide] | 100 to 400 |
| CNC(=O)c1ccc(-c2c[nH]c3nc(Nc4ccc(C(=O)NC5COC5)cc4OC)nc(OC4CCOCC4)c23)cc1 [Example 310, 3-methoxy-4-(5-(4-(methylcarbamoyl)phenyl)-4-(tetrahydro-2H-pyran-4-yloxy)-7H-pyrrolo[2,3-d]pyrimidin-2-ylamino)-N-(oxetan-3-yl) benzamide] | < 100 |
| COc1cc(C(=O)N2C[C@@H](OC)[C@H](OC)C2)ccc1Nc1nc(OC2CCCC2)c2c(-c3ccc4nc(C)oc4c3)c[nH]c2n1 [Example 311, (4-(4-(cyclopentyloxy)-5-(2-methylbenzo[d]oxazol-6-yl)-7H-pyrrolo[2,3-d]pyrimidin-2-ylamino)-3-methoxyphenyl) ((3R,4R)-3,4-dimethoxypyrrolidin-1-yl)methanone] | < 100 |
| COc1cc(C(=O)N2CC2(C)C)ccc1Nc1nc(OC2CCCC2)c2c(-c3ccc4nc(C)oc4c3)c[nH]c2n1 [Example 312, (4-(4-(cyclopentyloxy)-5-(2-methylbenzo[d]oxazol-6-yl)-7H-pyrrolo[2,3-d]pyrimidin-2-ylamino)-3-methoxyphenyl)(2,2-dimethylaziridin-1-yl)methanone] | 400 to 1000 |
| COc1cc(C(=O)N2C[C@@H]2C)ccc1Nc1nc(OC2CCCC2)c2c(-c3ccc4nc(C)oc4c3)c[nH]c2n1 [Example 313, (S)-(4-(4-(cyclopentyloxy)-5-(2-methylbenzo[d]oxazol-6-yl)-7H-pyrrolo[2,3-d]pyrimidin-2-ylamino)-3-methoxyphenyl)(2-methylaziridin-1-yl)methanone] | 400 to 1000 |
| COc1cc(C(=O)NC2COC2)ccc1Nc1nc(O[C@H]2CC[C@@](C)(O)CC2)c2c(-c3ccc4nc(C)oc4c3)c[nH]c2n1 [Example 314, 4-(4-((1s,4s)-4-hydroxy-4-methylcyclohexyloxy)-5-(2-methylbenzo[d]oxazol-6-yl)-7H-pyrrolo[2,3-d]pyrimidin-2-ylamino)-3-methoxy-N-(oxetan-3-yl)benzamide] | < 100 |
| COc1cc(C(=O)N2CC2)ccc1Nc1nc(O[C@H]2CC[C@@](C)(O)CC2)c2c(-c3ccc4nc(C)oc4c3)c[nH]c2n1 [Example 315, aziridin-1-yl(4-(4-((1s,4s)-4-hydroxy-4-methylcyclohexyloxy)-5-(2-methylbenzo[d]oxazol-6-yl)-7H-pyrrolo[2,3-d]pyrimidin-2-ylamino)-3-methoxyphenyl) methanone] | < 100 |
| CNC(=O)c1ccc(-c2c[nH]c3nc(Nc4ccnn4C)nc(OC4CCCC4)c23)cc1 [Example 316, 4-(4-(cyclopentyloxy)-2-(1-methyl-1H-pyrazol-5-ylamino)-7H-pyrrolo [2,3-d]pyrimidin-5-yl)-N-methylbenzamide] | < 100 |
| CNC(=O)c1ccc(-c2c[nH]c3nc(Nc4ccnn4C)nc(OC4CCOCC4)c23)cc1 [Example 317, N-methyl-4-(2-(1-methyl-1H-pyrazol-5-ylamino)-4-(tetrahydro-2H-pyran-4-yloxy)-7H-pyrrolo [2,3-d]pyrimidin-5-yl)benzamide] | 400 to 1000 |
